Key:
CYP1A2 = molecular target: T1, CYP1A2 (Homo sapiens, UniProt P05177); test: CYP450 inhibition in human liver microsomes, CYP1A2; type: in vitro ADME; conditions: pH 7.4, read-out: % CYP inhibition @ 10 µM 1A2
T1 construct: tissue Corning or Xenotech; host or cells: human liver microsomes
T1 sequence (P05177 1-516): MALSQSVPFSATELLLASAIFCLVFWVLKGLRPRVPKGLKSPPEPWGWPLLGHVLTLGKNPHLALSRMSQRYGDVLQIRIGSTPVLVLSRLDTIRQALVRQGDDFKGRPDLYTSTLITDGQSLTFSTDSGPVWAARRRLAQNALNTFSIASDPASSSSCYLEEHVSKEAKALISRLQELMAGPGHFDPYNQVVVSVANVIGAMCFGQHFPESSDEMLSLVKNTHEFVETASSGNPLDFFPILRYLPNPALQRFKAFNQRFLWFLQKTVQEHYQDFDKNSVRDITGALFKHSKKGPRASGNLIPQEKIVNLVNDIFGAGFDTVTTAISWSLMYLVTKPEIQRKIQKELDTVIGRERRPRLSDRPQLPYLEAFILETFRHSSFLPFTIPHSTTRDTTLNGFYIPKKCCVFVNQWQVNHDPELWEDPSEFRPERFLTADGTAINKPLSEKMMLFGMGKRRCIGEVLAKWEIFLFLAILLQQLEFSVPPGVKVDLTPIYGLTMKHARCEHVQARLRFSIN
From the text: (§1) According to standard methods in the field for the study of cytochrome P450 enzyme systems, such as the method described in Kerns, Edward H. and Di Li et al., Drug-like Properties: Concepts, Structure Design and Methods: from ADME to Toxicity Optimization (2008), San Diego, Academic Press, and Lin, Tong et al., In Vitro Assessment of Cytochrome P450 Inhibition: Strategies for Increasing LC/MS-Based Assay Throughput Using a One-Point IC50 Method and Multiplexing High-Performance Liquid Chromatography (J. Pharm. Sci. 2007, 96 (9), 2485). The inhibitory effect of the disclosed compounds on the cytochrome P450 enzyme system was similarly examined below.
(§2) Human liver microsomes were purchased from Corning or Xenotech. The test compounds were evaluated by detecting the metabolism of substrates for different Cyp450 isoforms by human liver microsomes.
(§3) 0.1 M potassium phosphate buffer (K-buffer, pH 7.4) was pre-warmed.
(§4) 100 mM K-buffer was prepared by mixing 9.5 mL of stock solution A (1 M potassium dihydrogen phosphate, prepared by dissolving 136.5 g of potassium dihydrogen phosphate in 1 L of Milli-Q water) with 40.5 mL of stock solution B (1 M potassium hydrogen phosphate, prepared by dissolving 174.2 g of potassium hydrogen phosphate in 1 L of Milli-Q water). The total volume was adjusted to 500 mL with Milli-Q water, and the buffer was titrated to pH 7.4 using KOH or H3PO4.
(§5) Test compound solution and specific inhibitor solution (400× dilution) were prepared in a 96-well plate. For the test compound, 8 µL of 10 mM test compound was transferred into 12 µL of ACN. For specific inhibitors of CYP1A2, CYP2C9, and CYP2D6: 12 µL of 1 mM α-naphthoflavone, 10 µL of 40 mM sulfaphenazole, 10 µL of 10 mM quinidine, and 8 µL of DMSO were mixed. For specific inhibitors of CYP3A4, CYP2B6, CYP2C8, and CYP2C19: 8 µL of DMSO stock solution was added to 12 µL of ACN.
(§6) A 4× diluted NADPH solution was prepared by dissolving 66.7 mg of NADPH in 10 mL of 0.1 M K-buffer (pH 7.4). […]

CYP2C19 = molecular target: T2, CYP2C19 (Homo sapiens, UniProt P33261); test: CYP450 inhibition in human liver microsomes, CYP2C19; type: in vitro ADME; conditions: pH 7.4, read-out: % CYP inhibition @ 10 µM 2C19
T2 construct: tissue Corning or Xenotech; host or cells: human liver microsomes
From the text: as §1, §2, §3, §4, §5, §6

T2 sequence (P33261 whole entry): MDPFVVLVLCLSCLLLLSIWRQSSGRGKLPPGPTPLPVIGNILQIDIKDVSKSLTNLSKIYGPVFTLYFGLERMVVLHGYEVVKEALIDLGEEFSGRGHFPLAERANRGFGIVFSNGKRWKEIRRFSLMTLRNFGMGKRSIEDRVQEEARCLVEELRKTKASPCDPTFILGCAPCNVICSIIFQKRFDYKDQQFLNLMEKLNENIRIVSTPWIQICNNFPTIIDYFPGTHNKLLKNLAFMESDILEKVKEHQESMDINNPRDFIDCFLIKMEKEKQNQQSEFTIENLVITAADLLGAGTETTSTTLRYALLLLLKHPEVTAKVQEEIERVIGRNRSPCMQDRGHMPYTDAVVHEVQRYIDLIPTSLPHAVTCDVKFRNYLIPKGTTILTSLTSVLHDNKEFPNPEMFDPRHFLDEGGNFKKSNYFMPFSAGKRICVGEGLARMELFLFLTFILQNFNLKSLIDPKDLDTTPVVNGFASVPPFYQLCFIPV

`O=C(Nc1ccc(-c2cc3cc(F)c(-c4nnn[nH]4)cc3n2C2CCC2)cc1)C(=O)Nc1ccc(N2CCC(CO)CC2)cc1` [Example 23] was tested, and the inhibition at 10 min, 10 µM (CYP1A2) was 17.1% and the inhibition at 45 min, 10 µM (CYP2C19) was 1.78%.

Work on `O=C(Nc1ccc(-c2cc3cc(F)c(-c4nnn[nH]4)cc3n2C2CCC2)cc1)C(=O)Nc1ccc(N2CCC3(CCOC3)CC2)cc1` [Example 67] yielded an inhibition at 10 min, 10 µM (CYP1A2) of 9.47% and an inhibition at 45 min, 10 µM (CYP2C19) of 13.9%.

`CC1(n2c(-c3ccc(NC(=O)C(=O)Nc4ccc(N5CCC6(CCOC6)CC5)cc4)cc3)cc3cc(F)c(-c4nnn[nH]4)cc32)CCC1` [Example 68] showed an inhibition at 10 min, 10 µM (CYP1A2) of 11.4% and an inhibition at 45 min, 10 µM (CYP2C19) of 13.5%.

Reference: patent publication EP4741383A1, “COMPOUND AND USE THEREOF AS ANTI-CANCER DRUG” (Tyligand Bioscience (Shanghai) Limited, priority 2023, dated 2025)
